In US6737383B1, “Herbicidal oxadiazolidines” (priority 1999, dated 2004):

Legend:
corn = assay: Test B pre/postemergence corn; type: in vivo, Zea mays
Method in brief: (§1)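 Response is a visual 0-to-10 score relative to untreated plants, where 0 means no effect and 10 means complete control, taken twelve to sixteen days after application. Treatments went onto soil at planting and onto foliage of 1- to 4-leaf plants, using a surfactant-containing non-phytotoxic solvent.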

crabgrass = assay: Test B pre/postemergence crabgrass; type: in vivo, Digitaria sanguinalis
Method in brief: as §1

velvetleaf = assay: Test B pre/postemergence velvetleaf; type: in vivo, Abutilon theophrasti
Method in brief: as §1

rice = assay: Test B flood test rice; type: in vivo, Oryza sativa
Method in brief: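 Each value is a visual injury score relative to controls, with 10 meaning complete control and 0 no effect. Evaluation took place twelve to sixteen days after the 2-leaf-stage plants were treated and kept in the greenhouse.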

goosegrass = assay: Test D goosegrass; type: in vivo, Eleusine indica; conditions: Preemergence, 0 to 100 scale, 0 no injury, 100 complete control
From the text: (§2) Seeds, tubers, or plant parts of Alexandergrass (Brachiaria plantaginea), bermuda-grass (Cynodon dactylon), common pursiane (Portulaca oleracea), common ragweed (Ambrosia elatior), common groundsel (Senecio vulgaris), dallisgrass (Paspalum dilatatum), goosegrass (Eleusine indica), guineagrass (Panicum maximum), itchgrass (Rottboellia exaltata), Johnson grass (Sorghum halepense), large crabgrass (Digitaria sanguinalis), pitted morningglory (Ipomoea lacunosa), purple nutsedge (Cyperus rotundus), sandbur (Cenchrus echinatus), sourgrass (Trichachne insularis), Spanishneedles (Bidens bipinnata), surinam grass (Brachiaria decumbens) and tall mallow (Malva sylvestris) were planted into greenhouse pots of flats containing greenhouse planting medium. Plant species were grown in separate pots or individual compartments. Preemergence applications were made within one day of planting the seed or plant part.
(§3) Test chemicals were formulated in a non-phytotoxic solvent mixture which included a surfactant and applied preemergence to the surface of the pot containing seeds in a sandy loam soil. Untreated control pots and treated pots were placed in the greenhouse for growth and visually evaluated for injury 14 to 21 days after herbicide application. Plant response ratings, summarized in Table C, are based on a 0 to 100 scale where 0 is no injury and 100 is complete control. A dash (−) response means no test result.

winter wheat [1] = assay: Test E winter wheat; type: in vivo, Triticum aestivum; conditions: Postemergence
Method in brief: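 Visually scored herbicidal effect relative to untreated plants, taken ~21 to 28 days post-application; compound in solvent with surfactant; postemergence sprays at the 1- to 4-leaf stage.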

Green foxtail [2] = assay: Test D green foxtail; type: in vivo
From the text: as §2, §3

blackgrass = assay: Test E blackgrass; type: in vivo, Alopecurus myosuroides; conditions: Preemergence
green foxtail [3] = assay: Test E green foxtail; type: in vivo, Setaria viridis; conditions: Preemergence
Italian ryegrass = assay: Test E Italian ryegrass; type: in vivo, Lolium multiflorum; conditions: Preemergence
winter wheat [4] = assay: Test E winter wheat; type: in vivo, Triticum aestivum; conditions: Preemergence
wild oat = assay: Test E wild oat; type: in vivo, Avena fatua; conditions: Preemergence, 0 to 100 scale where 0 is no effect and 100 is complete control
winter barley = assay: Test E winter barley; type: in vivo, Hordeum vulgare; conditions: Preemergence
[5] = Postemergence, Rate 62 g/ha, scale 0 to 10, 0 is no effect, 10 is complete control
[6] = Postemergence, Rate 250 g/ha, scale 0 to 10, 0 no effect, 10 complete control
[7] = Preemergence, Rate 62 g/ha, scale 0 to 10, 0 is no effect, 10 is complete control
[8] = Preemergence, Rate 125 g/ha, scale 0 to 10 (0 no effect, 10 complete control)
[9] = Preemergence, Rate 250 g/ha, scale of 0 to 10 where 0 is no effect and 10 is complete control
[10] = Preemergence, Rate 500 g/ha, scale 0 (no effect) to 10 (complete control)
[11] = Rate 125 g/ha, Postemergence, scale 0 to 10, 0 no effect, 10 complete control
[12] = Rate 500 g/ha, Postemergence, 0 to 10 scale (0 no effect, 10 complete control)
[13] = Rate 64 g/ha, Preemergence; 0 to 100 scale, 0 no injury, 100 complete control
[14] = Rate 125 g/ha, Preemergence; 0 to 100 scale, 0 no injury, 100 complete control
[15] = Rate 500 g/ha, 0 to 100 scale where 0 is no effect and 100 is complete control
[16] = Rate 1000 g/ha, 0 to 100 scale where 0 is no effect and 100 is complete control
[17] = Postemergence, Rate 125 g/ha, scale of 0 to 10 where 0 is no effect and 10 is complete control
[18] = Preemergence, Rate 62 g/ha, scale 0 to 10 (0 no effect, 10 complete control)
[19] = Preemergence, Rate 125 g/ha, 0 is no effect, 10 is complete control
[20] = Preemergence, Rate 250 g/ha, scale 0 to 10, 0 is no effect, 10 is complete control
[21] = Preemergence, Rate 500 g/ha, scale 0 to 10 (0 no effect, 10 complete control)
[22] = Rate 62 g/ha, Postemergence, scale of 0 to 10 where 0 is no effect and 10 is complete control
[23] = Rate 250 g/ha, Postemergence, scale 0 to 10, 0 is no effect, 10 is complete control
[24] = Rate 500 g/ha, Postemergence, scale 0 to 10

Cc1cccc(C)c1-n1c(=O)on(C(=O)N(c2ccc(F)cc2)C(C)C)c1=O [Compound 18]
Corn plant response rating (corn; [5]): 0
Corn plant response rating (corn; [6]): 0
Plant response rating, Corn (corn; [7]): 0
Plant response rating, Corn (corn; [8]): 0
Plant response rating, Corn (corn; [9]): 0
Corn plant response rating (corn; [10]): 0
Corn plant response rating (corn; [11]): 0
Corn plant response rating (corn; [12]): 0
Crabgrass plant response rating (crabgrass; [5]): 0
Crabgrass plant response rating (crabgrass; [6]): 7
Plant response rating, Crabgrass (crabgrass; [7]): 6
Plant response rating, Crabgrass (crabgrass; [8]): 5
Plant response rating, Crabgrass (crabgrass; [9]): 8
Crabgrass plant response rating (crabgrass; [10]): 10
Crabgrass plant response rating (crabgrass; [11]): 3
Crabgrass plant response rating (crabgrass; [12]): 9
Velvetleaf plant response rating (velvetleaf; [5]): 0
Velvetleaf plant response rating (velvetleaf; [6]): 1
Plant response rating, Velvetleaf (velvetleaf; [7]): 0
Plant response rating, Velvetleaf (velvetleaf; [8]): 0
Plant response rating, Velvetleaf (velvetleaf; [9]): 0
Velvetleaf plant response rating (velvetleaf; [10]): 0
Velvetleaf plant response rating (velvetleaf; [11]): 0
Rice plant response rating (rice; [5]): 0
Rice plant response rating (rice; Rate 62 g/ha, headed Pre-emergence (flood test species), scale 0 to 10 (0 no effect, 10 complete control)): 0
Rice plant response rating (rice; Rate 125 g/ha, Postemergence section (flood test species), scale 0 to 10, 0 no effect, 10 complete control): 0
Rice plant response rating (rice; Rate 125 g/ha, Pre-emergence, flood test species, scale 0 to 10 where 0 is no effect and 10 is complete control): 0
Rice plant response rating (rice; Rate 250 g/ha, headed Pre-emergence (flood test species), scale 0 to 10 (0 no effect, 10 complete control)): 0
Rice plant response rating (rice; Rate 500 g/ha, Postemergence section of Table B, 0 to 10 scale (0 no effect, 10 complete control)): 5
Plant response rating, Rice (rice; Rate 500 g/ha, headed Pre-emergence (flood test species), scale 0 to 10 (0 no effect, 10 complete control)): 0
Rice plant response rating (rice; Rate 1000 g/ha, Pre-emergence (as headed), scale 0 to 10): 0
Rice plant response rating (rice; Rate 2000 g/ha, Pre-emergence (as headed), scale 0 to 10): 0
Rice plant response rating (rice; flood test, listed under Postemergence, Rate 250 g/ha, scale 0 to 10, 0 no effect, 10 complete control): 2
Plant response rating, Goosegrass (goosegrass; Rate 16 g/ha): 0
Plant response rating, Goosegrass (goosegrass; Rate 32 g/ha): 0
Plant response rating, Goosegrass (goosegrass; Rate 64 g/ha): 85
Plant response rating, Goosegrass (goosegrass; Rate 125 g/ha): 85
Plant response rating, Wheat (winter) (winter wheat [1]; Rate 250 g/ha, 0 to 100 scale (0 no effect, 100 complete control)): 55
Plant response rating, Wheat (winter) (winter wheat [1]; Rate 500 g/ha, 0 to 100 scale, 0 no effect, 100 complete control): 65
Plant response rating, Green foxtail (Green foxtail [2]; Preemergence; Rate 16 g/ha; 0 to 100 scale, 0 no injury, 100 complete control): 0
Plant response rating, Green foxtail (Green foxtail [2]; Preemergence; Rate 32 g/ha; 0 to 100 scale, 0 no injury, 100 complete control): 0
Plant response rating, Green foxtail (Green foxtail [2]; Rate 16 g/ha; Preemergence; 0 to 100 scale, 0 no injury, 100 complete control): 0
Plant response rating, Green foxtail (Green foxtail [2]; Rate 32 g/ha; Preemergence; 0 to 100 scale, 0 no injury, 100 complete control): 0
Green foxtail plant response rating (Green foxtail [2]; [13]): 85
Plant response rating, Green foxtail (Green foxtail [2]; [13]): 85
Green foxtail plant response rating (Green foxtail [2]; [14]): 85
Plant response rating, Green foxtail (Green foxtail [2]; [14]): 85
Plant response rating, Blackgrass (blackgrass; Rate 250 g/ha, 0 to 100 scale): 10
Plant response rating, Blackgrass (blackgrass; [15]): 25
Plant response rating, Blackgrass (blackgrass; [16]): 85
Plant response rating, Green foxtail (green foxtail [3]; Rate 250 g/ha, 0 to 100 scale): 30
Plant response rating, Green foxtail (green foxtail [3]; [15]): 50
Plant response rating, Green foxtail (green foxtail [3]; [16]): 70
Plant response rating, I. Ryegrass (Italian ryegrass; Rate 250 g/ha, 0 to 100 scale): 40
Plant response rating, I. Ryegrass (Italian ryegrass; [15]): 60
Plant response rating, I. Ryegrass (Italian ryegrass; [16]): 70
Plant response rating, Wheat (winter) (winter wheat [4]; Rate 250 g/ha, 0 to 100 scale): 0
Plant response rating, Wheat (winter) (winter wheat [4]; [15]): 10
Plant response rating, Wheat (winter) (winter wheat [4]; [16]): 20
Plant response rating, Wild oat (wild oat; Rate 500 g/ha): 40
Plant response rating, Wild oat (wild oat; Rate 1000 g/ha): 50
Plant response rating, Barley (winter) (winter barley; Rate 250 g/ha, 0 to 100 scale): 20
Plant response rating, Barley (winter) (winter barley; [15]): 30
Plant response rating, Barley (winter) (winter barley; [16]): 50

CCCn1c(=O)on(C(=O)N(c2ccc(F)cc2F)C(C)C)c1=O [Compound 130]
Corn plant response rating (corn; [17]): 0
Corn plant response rating (corn; [18]): 3
Corn plant response rating (0 to 10 scale) (corn; [19]): 3
Corn plant response rating (corn; [20]): 6
Corn plant response rating (corn; [21]): 6
Corn plant response rating (corn; [22]): 0
Plant response rating, Corn (corn; [23]): 2
Corn plant response rating (corn; [24]): 3
Crabgrass plant response rating (crabgrass; [17]): 9
Crabgrass plant response rating (crabgrass; [18]): 6
Crabgrass plant response rating (0 to 10 scale) (crabgrass; [19]): 9
Crabgrass plant response rating (crabgrass; [20]): 9
Crabgrass plant response rating (crabgrass; [21]): 10
Crabgrass plant response rating (crabgrass; [22]): 5
Plant response rating, Crabgrass (crabgrass; [23]): 9
Crabgrass plant response rating (crabgrass; [24]): 9
Velvetleaf plant response rating (velvetleaf; [17]): 3
Velvetleaf plant response rating (velvetleaf; [18]): 5
Velvetleaf plant response rating (0 to 10 scale) (velvetleaf; [19]): 8
Velvetleaf plant response rating (velvetleaf; [20]): 8
Velvetleaf plant response rating (velvetleaf; [21]): 10
Velvetleaf plant response rating (velvetleaf; [22]): 0
Plant response rating, Velvetleaf (velvetleaf; [23]): 5
Velvetleaf plant response rating (velvetleaf; [24]): 5
Plant response rating, Goosegrass (goosegrass; Rate 64 g/ha): 100
Green foxtail plant response rating (Green foxtail [2]; [13]): 100
Plant response rating, Green foxtail (Green foxtail [2]; [13]): 100
